Reference: patent US8258186B2, “Pharmaceutical for oral delivery comprising MGBG” (Pathologica, LLC, priority 2009, dated 2012)

Columns and labels:
[1] = test system: carrageenan-induced paw edema and hyperalgesia; experiment: Carrageenan paw test for edema and hyperalgesia; format: in vivo, Swiss Webster mice
Excerpt: Injection of carrageenan subcutaneously into the hind foot (paw) of a rat or mouse induces robust inflammation and pain. The inflammatory response begins 1-2 hrs post-carrageenan injection and persists for at least five hours following inoculation. In addition, the animal's inflamed hind paw is sensitive to noxious (hyperaglesia) or innocuous (allodynia) stimuli, compared to the contralateral hind paw. Compounds can be evaluated in this model for anti-hyperalgesia and anti-inflammatory activity. […] It is possible that some compounds will affect the inflamed paw and not affect the responses of the contralateral paw.
Embodiments of the carrageenan foot edema test are performed with materials, reagents and procedures essentially as described by Winter, et al., (Proc. Soc. Exp. Biol. Med., 111, 544 (1962)). Prophylactic and therapeutic embodiments have been developed, and are known in the art. The animals are evaluated for their responsiveness to noxious (paw pinch, plantar test) or innocuous (cold plate, von Frey filaments) stimuli. In the following protocol, mice were used.
Animals, compounds, and dosing. Healthy young male Swiss Webster mice in which weight variation of the mice will not exceed ±20% of the mean were used for the study. […]
Paw Edema. Immediately before sub-plantar administration of carrageenan and after 2, 3, 5 and 24 hours post carrageenan, mouse paw volume was measured using the plethysmometer (Ugo Basile). The assessment of edema was expressed as the mean increase in paw volume relative to control.
Assessment of Paw Withdrawal Latency. Prior to sub-plantar administration of carrageenan and after 0.5, 2, 3, 5, and 24 hours post-carrageenan, the latency of withdrawal response was determined by placing mice on a hot plate analgesia meter with surface temperature maintained at 51° C. […] Paw withdrawal latency is calculated as Δt=right paw withdrawal−left paw withdrawal. […]

[2] = Multi-dose rat pharmacokinetic and tolerability study; format: in vivo, Sprague Dawley rats; conditions: for AUC / CL/F / fold increase in mean AUCall compared to Study Day 1 / AUC(0-t) / Cmax / Tmax: male, Sprague Dawley; for fold increase in mean AUCall compared to Study Day 1: 7 days
Description: The purpose of this study was to determine the pharmacokinetic (PK) properties and tolerability of MGBG in rats. Additionally, recovery from any toxic effects was assessed after a seven day non-dosing period.
Three per group of male Sprague Dawley (CD® MS, Charles River) aged 7-9 weeks and weighing 222.7-252.0 g were administered by oral (PO) gavage, twice daily, at 10, 20, or 30 mg/kg/dose (20, 40, or 60 mg/kg/day) for seven consecutive days. A washout period of seven days followed. Collection of approximately 200 μL of whole blood was collected from the tail vein of all animals in Groups 5, 6, and 7 were bled at six (Day 1), seven (Day 7), or one (Days 9 through 15) time point(s), respectively. Whole blood samples were collected in a lithium heparin microtainer and processed to plasma by centrifugation. Plasma was frozen at −70° C. Pharmacokinetic analyses were performed on the individual animal plasma concentration versus time data for MGBG using WinNonlin (linear trapezoidal rule for AUC calculations). Nominal dose values and sampling times were used for calculations. For Study Day 7, the reported values for MGBG concentrations at time zero were used in the calculations of AUC. Study Day 1 disposition parameters were not reported due to insufficient terminal phase data to adequately characterize these parameters.
On Study Day 7, evidence of dose-dependent dispositions for Cl/Fobs and elimination half-life were observed as mean parameter values for Cl/Fobs and elimination half-life increased and decreased, respectively, with increasing dose levels.
Based on the findings of this exploratory study, the no observable adverse effect level (NOAEL) for MGBG administered by PO gavage twice daily for seven consecutive days to male Sprague Dawley rats is 30 mg/kg/dose (60 mg/kg/day).

With `CC(/C=N/NC(=N)N)=N\NC(=N)N` [MGBG, 1,1′[methylethanediylidene]dinitrilodiguanidine] the reduction of edema ([1]; mice, MGBG PO BID) was “efficacious”, the reduction of hyperalgesia ([1]; mice, MGBG PO BID, hot plate paw withdrawal latency) was “efficacious” and the “efficacy at lower doses” value ([1]; murine carrageenan models, 3 mg/kg PO BID and 10 mg/kg PO BID) was “efficacy”. For the same compound, the “increase of systemic exposure (Cmax and AUCall) with increasing dose” value ([2]; in vivo) was “slightly less than dose-proportional”, the “hematology parameters versus control group” value ([2]; in vivo, 60 mg/kg/day) was “lower reticulocyte count and percentage” and the “serum chemistry parameters versus control group” value ([2]; in vivo, 60 mg/kg/day) was “osmolality and electrolyte changes consistent with slight dehydration”. For the same compound, the NOAEL at 7 days ([2]; in vivo, male Sprague Dawley rats, PO gavage twice daily, seven consecutive days, read-out: no observable adverse effect level (NOAEL)) was 60 mg/kg/day, the “systemic exposure, plasma Day 1 and Day 7” value ([2]; in vivo, po) was “systemic exposure to the test article at all time points” and the AUC ([2]; in vivo, po, 20 mg/kg/day) was 7930 ng·h/mL. The CL/F ([2]; in vivo, po, 20 mg/kg/day) was 24.3 mL/min/kg, the “fold increase in mean AUCall compared to Study Day 1” value (from here on “fold increase in mean AUCall”) ([2]; in vivo, po, 20 mg/kg/day) was 3.77 fold and the AUC(0-t) ([2]; in vivo, po, 20 mg/kg/day, AUC0-12) was 773 ng·h/mL. The AUC(0-t) ([2]; in vivo, po, 20 mg/kg/day, AUC0-24) was 1750 ng·h/mL, the Cmax ([2]; in vivo, po, 20 mg/kg/day) was 124 ng/mL and the Tmax ([2]; in vivo, po, 20 mg/kg/day, Tmax) was 10 h. For the same compound, the AUC ([2]; in vivo, po, 40 mg/kg/day) was 13700 ng·h/mL, the CL/F ([2]; in vivo, po, 40 mg/kg/day) was 28.2 mL/min/kg and the “fold increase in mean AUCall” value ([2]; in vivo, po, 40 mg/kg/day) was 4.03 fold. For the same compound, the AUC(0-t) ([2]; in vivo, po, 40 mg/kg/day, AUC0-12) was 1380 ng·h/mL, the AUC(0-t) ([2]; in vivo, po, 40 mg/kg/day, AUC0-24) was 2980 ng·h/mL and the Cmax ([2]; in vivo, po, 40 mg/kg/day) was 175 ng/mL. It also gave a Tmax ([2]; in vivo, po, 40 mg/kg/day, Tmax) of 7.33 h, an AUC ([2]; in vivo, po, 60 mg/kg/day) of 17100 ng·h/mL and a CL/F ([2]; in vivo, po, 60 mg/kg/day) of 35.8 mL/min/kg. For the same compound, the “fold increase in mean AUCall” value ([2]; in vivo, po, 60 mg/kg/day) was 3.68 fold, the AUC(0-t) ([2]; in vivo, po, 60 mg/kg/day, AUC0-12) was 2170 ng·h/mL and the AUC(0-t) ([2]; in vivo, po, 60 mg/kg/day, AUC0-24) was 4380 ng·h/mL. The Cmax ([2]; in vivo, po, 60 mg/kg/day) was 296 ng/mL, the Tmax ([2]; in vivo, po, Tmax values over the dose range evaluated) was 3.33 to 14 h and the “gross or microscopic lesions at terminal sacrifice” value ([2]; test article-treated animals) was “No gross or microscopic lesions were observed”.
